Test results published in article PMC11025159 (Journal of Translational Medicine, 2024).

Assay: Body weight, biochemical and haematological parameters in DHT-induced AGA mice (0.5% testosterone then topical treatment)
Assay type: in vivo, C57BL/6J mice
Settings: for LYMPH: unit assumed
Method: The experiments were performed on C57BL/6 J and Athymic nude mice (NU/J Foxn1^nu) of 6–7 weeks of age obtained from Animal House Facility, CSIR-Indian Institute of Integrative Medicine (IIIM), Jammu, India. […] The animals were provided with ad libitum feed (standard pellet diet) and autoclaved RO water throughout the study. The body weight of mice was measured after seven days before treatment.
C57BL/6 J mice (male) were obtained from CSIR-IIIM Animal House at 7 weeks of age. We used a DHT-induced AGA mice model for this study. […] At the end of the experiment, skin samples were collected and preserved in 10% neutral buffered formalin for tissue sectioning and staining using haematoxylin and eosin (H&E). The histopathological examinations were performed under the 10× and 40× objectives of light microscope (Magnus, Mx21i).
Every two weeks during the experimental period, mice were anesthetized, and the blood samples were collected into tubes containing heparin sodium to detect the total and differential white blood cells, haemoglobin, red blood cell, platelet count, mean corpuscular haemoglobin, mean corpuscular volume, red blood cell volume, mean platelet volume, and analyzed using an automated haematology analyzer (Model: XT1800i; Make: Sysmex).
Every two weeks during the experimental period, mice and rats were anesthetized, and blood samples were collected into non-heparinized tubes and then centrifuged at 1000 rpm at 4 °C for 10 min to obtain the serum. The biochemical parameters, including total protein, aspartate aminotransferase, alanine aminotransferase, total protein, albumin, total bilirubin, direct bilirubin, glucose, total cholesterol, triglyceride, low-density lipoprotein, high-density lipoprotein, creatinine, and uric acid, were measured using an automatic biochemical analyzer (Model: EM360; Make: Erba Mannheim).

**Q.** What does the source list for `CCS(=O)(=O)N1CC(CC#N)(n2cc(-c3ncnc4[nH]ccc34)cn2)C1` [Baricitinib, baricitinib, reference compound]?
**A.** ALP (Day 21, 0.02 mg/Kg): 108 U/L; ALT/SGPT (Day 21, 0.02 mg/Kg): 74 U/L; AST/SGOT (Day 21, 0.02 mg/Kg): 143 U/L; Cholesterol (Day 21, 0.02 mg/Kg): 171 mg/dL; Creatine (Day 21, 0.02 mg/Kg): 0.72 mg/dL; HCT (Day 21, 0.02 mg/Kg): 45%; HDL (Day 21, 0.02 mg/Kg): 105 mg/dL; LDL (Day 21, 0.02 mg/Kg): 101 mg/dL; MCHC (Day 21, 0.02 mg/Kg): 28 g/dL; MCV (Day 21, 0.02 mg/Kg): 52 fL; NEUT (Day 21, 0.02 mg/Kg): 30.5%; PLT (Day 21, 0.02 mg/Kg): 946 103/μl; RBC (Day 21, 0.02 mg/Kg): 8.2 1012/l; Total protein (Day 21, 0.02 mg/Kg): 5.0 g/dL; Triglyceride (Day 21, 0.02 mg/Kg): 98 mg/dL; Urea (Day 21, 0.02 mg/Kg): 69 mg/dL; WBC (Day 21, 0.02 mg/Kg): 4.3 103/μl; LYMPH (Day 21, 0.02 mg/Kg): 67.4%; ALP (Day 21, 0.04 mg/Kg): 99 U/L; ALT/SGPT (Day 21, 0.04 mg/Kg): 64 U/L; AST/SGOT (Day 21, 0.04 mg/Kg): 98 U/L; Cholesterol (Day 21, 0.04 mg/Kg): 171 mg/dL; Creatine (Day 21, 0.04 mg/Kg): 0.69 mg/dL; HCT (Day 21, 0.04 mg/Kg): 43%; HDL (Day 21, 0.04 mg/Kg): 122 mg/dL; LDL (Day 21, 0.04 mg/Kg): 106 mg/dL; MCHC (Day 21, 0.04 mg/Kg): 29 g/dL; MCV (Day 21, 0.04 mg/Kg): 52 fL; NEUT (Day 21, 0.04 mg/Kg): 30.5%; PLT (Day 21, 0.04 mg/Kg): 1082 103/μl; RBC (Day 21, 0.04 mg/Kg): 8.6 1012/l; Total protein (Day 21, 0.04 mg/Kg): 4.9 g/dL; Triglyceride (Day 21, 0.04 mg/Kg): 139 mg/dL; Urea (Day 21, 0.04 mg/Kg): 54 mg/dL; WBC (Day 21, 0.04 mg/Kg): 3.6 103/μl; LYMPH (Day 21, 0.04 mg/Kg): 67.4%; ALP (Day 21, 0.1mg/Kg): 144 U/L; ALT/SGPT (Day 21, 0.1mg/Kg): 92 U/L; AST/SGOT (Day 21, 0.1mg/Kg): 104 U/L; Cholesterol (Day 21, 0.1mg/Kg): 173 mg/dL; Creatine (Day 21, 0.1mg/Kg): 0.48 mg/dL; HCT (Day 21, 0.1mg/Kg): 48%; HDL (Day 21, 0.1mg/Kg): 108 mg/dL; LDL (Day 21, 0.1mg/Kg): 100 mg/dL; MCHC (Day 21, 0.1mg/Kg): 29 g/dL; MCV (Day 21, 0.1mg/Kg): 50 fL; NEUT (Day 21, 0.1mg/Kg): 26.8%; PLT (Day 21, 0.1mg/Kg): 1149 103/μl; RBC (Day 21, 0.1mg/Kg): 9.6 1012/l; Total protein (Day 21, 0.1mg/Kg): 5.0 g/dL; Triglyceride (Day 21, 0.1mg/Kg): 119 mg/dL; Urea (Day 21, 0.1mg/Kg): 51 mg/dL; WBC (Day 21, 0.1mg/Kg): 6.4 103/μl; LYMPH (Day 21, 0.1mg/Kg): 71.3%; ALP (Day 28, 0.02 mg/Kg): 159 U/L; ALT/SGPT (Day 28, 0.02 mg/Kg): 71 U/L; AST/SGOT (Day 28, 0.02 mg/Kg): 129 U/L; Cholesterol (Day 28, 0.02 mg/Kg): 213 mg/dL; Creatine (Day 28, 0.02 mg/Kg): 0.16 mg/dL; HCT (Day 28, 0.02 mg/Kg): 48.0%; HDL (Day 28, 0.02 mg/Kg): 173 mg/dL; HGB (Day 28, 0.02 mg/Kg): 15 g/dL; LDL (Day 28, 0.02 mg/Kg): 98 mg/dL; MCHC (Day 28, 0.02 mg/Kg): 30.0 g/dL; MCV (Day 28, 0.02 mg/Kg): 62 fL; PLT (Day 28, 0.02 mg/Kg): 1724 103/μl; RBC (Day 28, 0.02 mg/Kg): 7.8 106/μl; Total protein (Day 28, 0.02 mg/Kg): 5.8 g/dL; Triglyceride (Day 28, 0.02 mg/Kg): 90 mg/dL; Urea (Day 28, 0.02 mg/Kg): 60 mg/dL; WBC (Day 28, 0.02 mg/Kg): 6.3 103/μl; ALP (Day 28, 0.04 mg/Kg): 174 U/L; ALT/SGPT (Day 28, 0.04 mg/Kg): 88 U/L; AST/SGOT (Day 28, 0.04 mg/Kg): 123 U/L; Cholesterol (Day 28, 0.04 mg/Kg): 182 mg/dL; Creatine (Day 28, 0.04 mg/Kg): 0.11 mg/dL; HCT (Day 28, 0.04 mg/Kg): 48.0%; HDL (Day 28, 0.04 mg/Kg): 143 mg/dL; HGB (Day 28, 0.04 mg/Kg): 14 g/dL; LDL (Day 28, 0.04 mg/Kg): 85 mg/dL; MCHC (Day 28, 0.04 mg/Kg): 29.0 g/dL; MCV (Day 28, 0.04 mg/Kg): 60 fL; PLT (Day 28, 0.04 mg/Kg): 1427 103/μl; RBC (Day 28, 0.04 mg/Kg): 8.0 106/μl; Total protein (Day 28, 0.04 mg/Kg): 6.3 g/dL; Triglyceride (Day 28, 0.04 mg/Kg): 123 mg/dL; Urea (Day 28, 0.04 mg/Kg): 66 mg/dL; WBC (Day 28, 0.04 mg/Kg): 3.1 103/μl; ALP (Day 28, 0.1mg/Kg): 184 U/L; ALT/SGPT (Day 28, 0.1mg/Kg): 74 U/L; AST/SGOT (Day 28, 0.1mg/Kg): 86 U/L; Cholesterol (Day 28, 0.1mg/Kg): 164 mg/dL; Creatine (Day 28, 0.1mg/Kg): 0.13 mg/dL; HCT (Day 28, 0.1mg/Kg): 43.0%; HDL (Day 28, 0.1mg/Kg): 134 mg/dL; HGB (Day 28, 0.1mg/Kg): 14 g/dL; LDL (Day 28, 0.1mg/Kg): 78 mg/dL; MCHC (Day 28, 0.1mg/Kg): 33.0 g/dL; MCV (Day 28, 0.1mg/Kg): 67 fL; PLT (Day 28, 0.1mg/Kg): 1394 103/μl; RBC (Day 28, 0.1mg/Kg): 6.4 106/μl; Total protein (Day 28, 0.1mg/Kg): 6.2 g/dL; Triglyceride (Day 28, 0.1mg/Kg): 72 mg/dL; Urea (Day 28, 0.1mg/Kg): 53 mg/dL; WBC (Day 28, 0.1mg/Kg): 3.9 103/μl
